These results are taken from US7678820B2, “Hetero compound” (Astellas Pharma Inc., priority 2006, dated 2010).

One experiment addresses T1, human S1P1 (Homo sapiens, UniProt P21453).
T1 construct: expressed in transfected cells; membrane fraction used
Nature of the experiment: GTP[γ-35S] bond assay using the membrane of a human S1P1 expressing cell (S1P1 agonist activity). The class given is biochemical. The following applies: membrane of human S1P1 expressing CHO cell; concentration causing 50% of the maximum GTP[γ-35S] reaction. As to the method:
1) Evaluation of a Receptor Agonist Activity by a GTP[γ-^35S] Bond Assay Using the Membrane of a Human S1P1 Expressing Cell
The in vitro S1P1 agonist activity of the compound of the present invention was evaluated by the increase in the functional bonding activity into the G-Protein of a GTP[γ-^35S] using the membrane of a human S1P1 expressing cell. A cDNA encoding a human S1P1 was cloned from a human colorectal cDNA library, and introduced to an expression vector pcDNA3.1 to construct a S1P1-pcDNA3.1. Then, by Lipofectamine 2000 (GIBCO), the S1P1-pcDNA3.1 was transfected into a CHO cell, and cultured in a Ham's F-12 culture medium containing 10% fetal bovine serum, 100 U/mL Penicillin, 100 μg/mL Streptomycin, and 1 mg/mL G418 disulfate, to obtain a stable, G418-resistant strain. The cultured human S1P1 expressing cells were isolated in a 1 mM EDTA/2Na-containing PBS, and disrupted under ice-cooling by a homogenizer made of glass in a 1 mM Tris HCl (pH 7.4) buffer solution containing 0.1 mM EDTA and a […]. It was centrifuged at […], and a supernatant was further centrifuged at 4° C. for 60 min at 100,000×g, and suspended in a 10 mM Tris HCl (pH 7.4) buffer solution containing 1 mM EDTA. The obtained membrane (0.13 mg/mL) and […] GTP[γ-^35S] […] The FilterMate was dried at 50° C. for 60 min, and Microscinti-o (Packard) was added thereto for measurement by a liquids scintillation counter for a microplate (Packard, TOP count). For evaluation of the human S1P1 agonist activity of the compound of the present invention and the comparative compound, the percentages with the rate of a maximum reaction to make the GTP[γ-^35S] bonds saturated in the presence of the compound being set at 100%, and the rate of the reaction of the GTP[γ-^35S] bonds in the absence of the compound being set at 0% was used, a non-linear regression curve was plotted, and a concentration to cause an agonist activity operating 50% of the maximum reaction was defined as an EC50 value (nM).

In experiment [1] the test system is number of the lymphocytes in peripheral blood. Nature of the experiment: Evaluation of peripheral blood lymphopenia in rat. The format is in vivo. The following applies: for ED50: Rattus norvegicus, Lymphocyte, male Lewis rats, oral administration, 50% reduction of the number of lymphocytes in peripheral blood at 24 hours after administration, read-out: ED50 value after 24 hours; for ED50 value after 24 hours, conclusion in words (persistence): rat peripheral blood lymphopenia, 24 hours after oral administration. As to the method:
2) Evaluation of Peripheral Blood Lymphopenia in Rat
The peripheral blood lymphopenia in rat was measured at 24 hours after oral administration in the following manner. Six- to ten-week-old male Lewis rats (Japan Charles river laboratories) were randomly divided into the groups (n=3), and the compound of the present invention was suspended in 0.5% methyl cellulose-containing distilled water, and orally administered with a sonde. At 24 hours after administration, under ether anesthesia, 0.2 ml of blood was collected from ocular fundus. To the blood sample were immediately added EDTA/4K and heparin to prevent clotting, and the number of the lymphocytes in blood was measured with an automatic haematology analyzer (Sysmex Corp.; XT-2000i). For the reduction of the number of the lymphocytes in peripheral blood by the compound of the present invention, the percentage with the number of the lymphocytes in groups administered with 0.5% methyl cellulose-containing distilled water being set at 100%, as performed at the same time was used, and the dose to cause 50% reduction of the number of the lymphocytes in peripheral blood by administration of the compound of the present invention was defined an ED50 value (mg/kg).

T1 sequence (P21453 whole entry): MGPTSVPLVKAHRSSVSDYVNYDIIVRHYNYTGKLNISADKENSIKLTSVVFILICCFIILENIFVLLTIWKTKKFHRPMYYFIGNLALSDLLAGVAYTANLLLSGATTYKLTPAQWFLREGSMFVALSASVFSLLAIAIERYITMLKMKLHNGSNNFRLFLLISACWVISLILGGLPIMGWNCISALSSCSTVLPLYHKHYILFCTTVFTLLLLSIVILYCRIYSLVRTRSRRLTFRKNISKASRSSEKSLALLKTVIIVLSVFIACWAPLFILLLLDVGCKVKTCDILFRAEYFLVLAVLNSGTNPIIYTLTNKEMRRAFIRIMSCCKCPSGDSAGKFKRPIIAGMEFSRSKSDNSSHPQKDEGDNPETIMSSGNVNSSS

In the case of `C[C@H](Oc1ccc(-c2nc(-c3ccc4[nH]cnc4c3)no2)cc1C(F)(F)F)C(F)(F)F.Cl` [Ex 119], at human S1P1, the EC50 came to 4.3 nM. Also, in experiment [1], the ED50 was 0.071 mg/kg and the “ED50 value after 24 hours, conclusion in words (persistence)” value is “high ED50 value even after 24 hours, indicating persistence”.

Turning to `C[C@H](Oc1ccc(-c2nc(-c3ccc4[nH]cnc4c3)no2)cc1Cl)C(F)(F)F.Cl` [Ex 199], the EC50 at human S1P1 stood at 5 nM. Further, in experiment [1], the median effective dose (ED50) was 0.26 mg/kg and the “ED50 value after 24 hours, conclusion in words (persistence)” value was “high ED50 value even after 24 hours, indicating persistence”.
